This note sets out measurements from patent publication US4264620A, “Antihypertensive 5-substituted 2-pyrrolidinecarboxylic acids” (Santen Pharmaceutical Co., Ltd., priority 1978, dated 1981).

Series [1] concerns contractile response of isolated guinea-pig ileum to angiotensin I. The series is described as follows: Inhibition of contractile response of isolated guinea-pig ileum to angiotensin I (bioassay of angiotensin-converting enzyme inhibitory activity). As to conditions: angiotensin I 0.1 μg/ml, Tyrode's solution 30° C., compound added 5 minutes before, read-out: Angiotensin I IC50: concentration of compound producing 50% inhibition of the contractive action of angiotensin I on the guinea-pig ileum. From the text: As the method of measurement of angiotensin-converting enzyme activity, bioassay for the contractile response of isolated smooth muscle or the pressor response of normal animals and biochemical assay for the enzyme isolated from lung or other organs of animals are known. The former is found more advantageous than the latter for the examination of the convertion of angiotensin I to angiotensin II in vivo.
In the present study, therefore, we adopted the bioassay for contractile response of isolated guinea-pig ileum to angiotensin I.
(§1) Isolated guinea-pig ileum was suspended in the organ bath containing 20 ml of Tyrode's solution of 30° C. gassed with 95% O2 +5% CO2. The contraction induced by the addition of angiotensin I (0.1 μg/ml) at intervals of 10 minutes was recorded on a recticorder (Nihon Koden) for 90 seconds using FD pick up (ST-1T-H, Nihon Koden).
(§2) The test compounds were added to the bath 5 minutes before the addition of angiotensin I.
The inhibitory activity of angiotensin-converting enzyme was calculated by the following formula. [formula]

Series [2] relates to contractile response to bradykinin. The series is described as follows: Augmentation of contractile response of isolated guinea-pig ileum to bradykinin. As to conditions: bradykinin 0.005 μg/ml, compound added 5 minutes before, read-out: Bradykinin AC50: concentration of compound producing 50% augmentation of the contractive action of bradykinin on the guinea-pig ileum. Here is the method:
as §1, §2
From the fact that kininase II, which destroys bradykinin having contractile action of isolated guinea-pig ileum, is thought to be identical with angiotensin-converting enzyme, augmentation of the contractile response to bradykinin by test compounds was examined by using bradykinin (0.005 μg/ml) in place of angiotensin I according to the above mentioned method.

For series [3], the target named is T1, angiotensin-converting enzyme (Oryctolagus cuniculus, UniProt P12822).
T1 construct: extracted from rabbit lung; from tissue; host or cells: rabbit lung
T1 sequence (P12822 34-1310): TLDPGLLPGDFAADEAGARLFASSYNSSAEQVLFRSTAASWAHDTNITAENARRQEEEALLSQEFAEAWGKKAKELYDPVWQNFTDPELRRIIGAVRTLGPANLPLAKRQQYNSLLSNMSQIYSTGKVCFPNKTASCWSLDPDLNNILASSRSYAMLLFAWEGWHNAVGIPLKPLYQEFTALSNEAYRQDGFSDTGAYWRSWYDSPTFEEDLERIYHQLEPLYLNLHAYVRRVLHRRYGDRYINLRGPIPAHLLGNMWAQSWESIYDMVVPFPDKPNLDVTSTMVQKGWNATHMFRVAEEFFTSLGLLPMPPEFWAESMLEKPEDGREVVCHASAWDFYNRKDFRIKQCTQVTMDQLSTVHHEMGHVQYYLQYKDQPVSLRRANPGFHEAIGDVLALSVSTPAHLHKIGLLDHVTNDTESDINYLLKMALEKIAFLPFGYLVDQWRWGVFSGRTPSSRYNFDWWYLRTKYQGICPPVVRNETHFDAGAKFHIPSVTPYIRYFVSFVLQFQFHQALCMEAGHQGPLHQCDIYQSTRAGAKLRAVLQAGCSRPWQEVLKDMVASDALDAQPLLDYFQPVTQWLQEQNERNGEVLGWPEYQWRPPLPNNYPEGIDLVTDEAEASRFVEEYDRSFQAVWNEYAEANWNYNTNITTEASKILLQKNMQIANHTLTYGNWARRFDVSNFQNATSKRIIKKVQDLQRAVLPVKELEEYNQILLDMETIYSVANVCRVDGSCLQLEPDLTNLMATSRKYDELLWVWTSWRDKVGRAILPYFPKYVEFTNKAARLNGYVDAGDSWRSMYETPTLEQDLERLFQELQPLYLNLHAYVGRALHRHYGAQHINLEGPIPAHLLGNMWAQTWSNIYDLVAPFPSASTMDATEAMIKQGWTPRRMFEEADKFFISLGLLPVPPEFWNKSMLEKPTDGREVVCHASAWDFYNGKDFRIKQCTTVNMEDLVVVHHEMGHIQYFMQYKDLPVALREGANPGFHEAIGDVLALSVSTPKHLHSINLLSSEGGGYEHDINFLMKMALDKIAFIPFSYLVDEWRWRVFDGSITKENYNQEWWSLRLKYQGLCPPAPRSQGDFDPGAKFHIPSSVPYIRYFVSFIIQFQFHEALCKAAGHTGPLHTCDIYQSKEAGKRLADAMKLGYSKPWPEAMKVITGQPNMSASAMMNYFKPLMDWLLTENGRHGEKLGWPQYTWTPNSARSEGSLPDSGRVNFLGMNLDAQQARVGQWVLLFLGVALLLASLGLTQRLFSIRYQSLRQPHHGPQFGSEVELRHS
The series is described as follows: Inhibitory activity of angiotensin-converting enzyme extracted from rabbit lung (spectrophotometry, HHL substrate). The format is biochemical. The settings on record: 5 mM HHL, pH 8.3, 37° C., 30 minutes, read-out: Angiotensin-converting enzyme IC50: concentration of compound producing 50% inhibition against angiotensin-converting enzyme. The procedure: The activity of angiotensin-converting enzyme was measured by spectrophotometry according to the method of Biochem. Pharmacol., 20. 1637 (1971). That is, the absorbance of hippuric acid was measured, which is liberated by incubating hippuryl-L-histidyl-L-leucine (HHL) as substrate in the presence of angiotensin-converting enzyme extracted from rabbit lung. The reaction mixture is as follows: 100 mM phosphate buffer (pH 8.3) 300 mM sodium chloride 5 mM HHL […] enzyme inhibitor 5 mU enzyme 0.25 ml of the above mixture was incubated at 37° C. for 30 minutes and the reaction was stopped by adding 0.25 ml of 1 N hydrochloric acid. […] The absorbance of this solution was measured at 228 nm.

A short description of series [4]: Acute toxicity test. The settings on record: mouse, in vivo, ip. The series is classed as in vivo. Here is the method:
(§3) The male ddy-std strain mice (4 weeks of age, weighing 19-21 g) were placed in a breeding room of constant temperature and humidity (23±1° C., 55±5%) and fed freely pellet diet (CE-2, Clea Japan Inc.) and water ad. libitum for a week. The mice showing the normal growth were selected for the experiment.
(§4) Test compounds are suspended in 0.5% tragacanth solution, and administered intraperitoneally in a dose of 0.5 ml of 20 g body weight.

Series [5] concerns male ddy-std strain mice. The series is described as follows: Acute toxicity test. As to conditions: male ddy-std mice, intraperitoneally. The format is in vivo. The procedure: as §3, §4

As usually defined, the LD50 is the dose expected to kill half of the subjects tested. Low readings indicate greater toxicity, high ones lower toxicity.

As to `C[C@H](CS)C(=O)N1C(C(=O)O)CCC1c1ccccc1O` (single isomer, unassigned) [Compound D], the IC50 was found to be 150 nM in series [1] and 1200 nM in series [3]. Further, the AC50 in series [2] was determined as 2.6 nM.
As to `C[C@H](CS)C(=O)N1CSC[C@H]1C(=O)O` [Compound Z, (4R)-3-[(2S)-3-mercapto-2-methylpropanoyl]-4-thiazolidinecarboxylic acid, reference compound], the IC50 in series [1] is 170 nM. For the same compound, in series [2], the AC50 is 2.6 nM.
On to `O=C(O)C1CCC(c2ccccc2O)N1C(=O)CCS` (stereo not drawn) [Compound E, α1-5-(2-hydroxyphenyl)-1-(3-mercaptopropanoyl)-2-pyrrolidinecarboxylic acid], for which the IC50 in series [1] was determined as 76 nM; in series [3], 65 nM. Besides, the AC50 in series [2] was 0.95 nM.
With `O=C(O)C1CCC(c2ccccc2O)N1C(=O)CCS` (stereo not drawn) [Compound A, α-5-(2-hydroxyphenyl)-1-(3-mercaptopropanoyl)-2-pyrrolidinecarboxylic acid], the IC50 in series [1] was 170 nM; in series [3] it was 560 nM. In series [2], the AC50 is 1.8 nM. In series [4], this compound yielded an LD50 of 1000 to 1250 mg/kg. Further, the “Acute toxicity (result in words)” value in series [5] is recorded as “low”.
`C[C@H](CS)C(=O)N1C(C(=O)O)CCC1c1ccccc1O` (single isomer, unassigned) [Compound C]: the IC50 in series [1] worked out at 160 nM; in series [3], 1100 nM. Besides, in series [2], the AC50 came to 2 nM.
As to `O=C(O)C1CCC(c2ccc(O)cc2)N1C(=O)CCS` (stereo not drawn) [Compound B, α-5-(4-hydroxyphenyl)-1-(3-mercaptopropanoyl)-2-pyrrolidinecarboxylic acid], the IC50 in series [1] came out at 480 nM; in series [3] it was 440 nM. The AC50 in series [2] worked out at 9.8 nM.
